Consider four compounds from PubChem BioAssay AID1745844 (Carcinogenic Potency Database (CPDB), 2022).

This data set deals with rodent lifetime carcinogenesis bioassay, tumor incidence TD50. Description: chronic cancer bioassays in animals – CPDB, compiled studies (AID 1745844).

Calls of active or inactive are those of the source. No rule for the calls is given here.

In general, TD50 refers to the 50% point of the dose-response relation for the toxic effect studied. On to `Oc1ccccc1O`, for which the TD50 by setting is: (mouse, strain B6C3F1, females, in feed, site: forestomach, lesion: papilloma, dosed 96 weeks, study length 96 weeks) 17300 mg/kg/day; (mouse, strain B6C3F1, females, in feed, site: liver, lesion: hyperplastic nodule, dosed 96 weeks, study length 96 weeks) 17300 mg/kg/day; (mouse, strain B6C3F1, females, in feed, site: stomach, glandular, lesion: adenoma, dosed 96 weeks, study length 96 weeks) 471 mg/kg/day; (mouse, strain B6C3F1, males, in feed, site: all sites, lesion: lymphoma and leukemia, combined, dosed 96 weeks, study length 96 weeks) 2460 mg/kg/day; (mouse, strain B6C3F1, males, in feed, site: forestomach, lesion: papilloma, dosed 96 weeks, study length 96 weeks) 16500 mg/kg/day; (mouse, strain B6C3F1, males, in feed, site: lung, lesion: adenoma, dosed 96 weeks, study length 96 weeks) 16500 mg/kg/day. For the same compound, the TD50 was 165 mg/kg/day (mouse, strain B6C3F1, males, in feed, site: stomach, glandular, lesion: adenoma, dosed 96 weeks, study length 96 weeks); 6470 mg/kg/day (rat, strain Crj:Wistar, males, in feed, site: forestomach, lesion: squamous-cell carcinoma, dosed 104 weeks, study length 104 weeks); 3180 mg/kg/day (rat, strain Crj:Wistar, males, in feed, site: forestomach, lesion: squamous-cell papilloma, dosed 104 weeks, study length 104 weeks); 6470 mg/kg/day (rat, strain Crj:Wistar, males, in feed, site: liver, lesion: hepatocellular carcinoma, dosed 104 weeks, study length 104 weeks); 3180 mg/kg/day (rat, strain Crj:Wistar, males, in feed, site: liver, lesion: hyperplastic nodule, dosed 104 weeks, study length 104 weeks); 200 mg/kg/day (rat, strain Crj:Wistar, males, in feed, site: stomach, glandular, lesion: adenocarcinoma, dosed 104 weeks, study length 104 weeks). For the same compound, the TD50 is 64.5 mg/kg/day (rat, strain Crj:Wistar, males, in feed, site: stomach, glandular, lesion: adenoma, dosed 104 weeks, study length 104 weeks); 2080 mg/kg/day (rat, strain Crj:Wistar, males, in feed, site: stomach, glandular, lesion: sarcoma, dosed 104 weeks, study length 104 weeks); 490 mg/kg/day (rat, strain F344/DuCrj, females, in feed, site: stomach, glandular, lesion: adenocarcinoma, dosed 104 weeks, study length 104 weeks); 833 mg/kg/day (rat, strain F344/DuCrj, males, in feed, site: forestomach, lesion: carcinoma, in situ, dosed 51 weeks, study length 52 weeks); 833 mg/kg/day (rat, strain F344/DuCrj, males, in feed, site: forestomach, lesion: papilloma, dosed 51 weeks, study length 52 weeks); 2960 mg/kg/day (rat, strain F344/DuCrj, males, in feed, site: forestomach, lesion: papilloma, dosed 104 weeks, study length 104 weeks). Besides, the TD50 is, setting by setting: (rat, strain F344/DuCrj, males, in feed, site: forestomach, lesion: squamous-cell papilloma, dosed 51 weeks, study length 52 weeks) 833 mg/kg/day; (rat, strain F344/DuCrj, males, in feed, site: forestomach, lesion: squamous-cell papilloma, dosed 104 weeks, study length 104 weeks) 3300 mg/kg/day; (rat, strain F344/DuCrj, males, in feed, site: pancreas, lesion: acinar-cell adenoma, dosed 104 weeks, study length 104 weeks) 1180 mg/kg/day; (rat, strain F344/DuCrj, males, in feed, site: stomach, glandular, pyloric region, lesion: adenocarcinoma, dosed 104 weeks, study length 104 weeks) 3320 mg/kg/day; (rat, strain F344/DuCrj, males, in feed, site: stomach, glandular, pyloric region, lesion: adenoma, dosed 104 weeks, study length 104 weeks) 43.5 mg/kg/day; (rat, strain F344/DuCrj, males, in feed, site: stomach, glandular, pyloric region, lesion: sarcoma, dosed 104 weeks, study length 104 weeks) 1940 mg/kg/day. In addition, the TD50 was 387 mg/kg/day (rat, strain F344/DuCrj, males, in feed, site: stomach, glandular, lesion: adenocarcinoma, dosed 48 weeks, study length 96 weeks); 130 mg/kg/day (rat, strain F344/DuCrj, males, in feed, site: stomach, glandular, lesion: adenocarcinoma, dosed 51 weeks, study length 51 weeks); 206 mg/kg/day (rat, strain F344/DuCrj, males, in feed, site: stomach, glandular, lesion: adenocarcinoma, dosed 72 weeks, study length 72 weeks); 202 mg/kg/day (rat, strain F344/DuCrj, males, in feed, site: stomach, glandular, lesion: adenocarcinoma, dosed 72 weeks, study length 96 weeks); 141 mg/kg/day (rat, strain F344/DuCrj, males, in feed, site: stomach, glandular, lesion: adenocarcinoma, dosed 96 weeks, study length 96 weeks); 286 mg/kg/day (rat, strain F344/DuCrj, males, in feed, site: stomach, glandular, lesion: adenocarcinoma, dosed 104 weeks, study length 104 weeks). Also, the TD50 (rat, strain Fischer 344, males, in drinking water, site: prostate, lesion: carcinoma, in situ, dosed 78 weeks, study length 78 weeks) is 236 mg/kg/day (inactive); the TD50 (rat, strain LEW/Crj (Lewis), males, in feed, site: stomach, glandular, lesion: adenocarcinoma, dosed 104 weeks, study length 104 weeks) is 166 mg/kg/day; the TD50 (rat, strain LEW/Crj (Lewis), males, in feed, site: stomach, glandular, lesion: adenoma, dosed 104 weeks, study length 104 weeks) was 64.5 mg/kg/day; the TD50 (rat, strain LEW/Crj (Lewis), males, in feed, site: stomach, glandular, lesion: sarcoma, dosed 104 weeks, study length 104 weeks) worked out at 2080 mg/kg/day; the TD50 (rat, strain SD(Crj:CD) Sprague-Dawley, males, in feed, site: forestomach, lesion: squamous-cell carcinoma, dosed 104 weeks, study length 104 weeks) was 6470 mg/kg/day; the TD50 (rat, strain SD(Crj:CD) Sprague-Dawley, males, in feed, site: forestomach, lesion: squamous-cell papilloma, dosed 104 weeks, study length 104 weeks) was 983 mg/kg/day. The TD50 reads like this: (rat, strain SD(Crj:CD) Sprague-Dawley, males, in feed, site: stomach, glandular, lesion: adenocarcinoma, dosed 104 weeks, study length 104 weeks) 151 mg/kg/day; (rat, strain WKY/NCrj (Wistar), males, in feed, site: forestomach, lesion: squamous-cell papilloma, dosed 104 weeks, study length 104 weeks) 6470 mg/kg/day; (rat, strain WKY/NCrj (Wistar), males, in feed, site: liver, lesion: several types, types named in the paper, dosed 104 weeks, study length 104 weeks) 12400 mg/kg/day; (rat, strain WKY/NCrj (Wistar), males, in feed, site: stomach, glandular, lesion: adenocarcinoma, dosed 104 weeks, study length 104 weeks) 2080 mg/kg/day. Moreover, the carcinogen call reads like this: (rat, strain F344/DuCrj, males, in feed, site: stomach, glandular, lesion: adenoma, dosed 48 weeks, study length 96 weeks) “positive”; (rat, strain F344/DuCrj, males, in feed, site: stomach, glandular, lesion: adenoma, dosed 51 weeks, study length 51 weeks) “positive”; (rat, strain F344/DuCrj, males, in feed, site: stomach, glandular, lesion: adenoma, dosed 51 weeks, study length 52 weeks) “positive”; (rat, strain F344/DuCrj, males, in feed, site: stomach, glandular, lesion: adenoma, dosed 72 weeks, study length 72 weeks) “positive”; (rat, strain F344/DuCrj, males, in feed, site: stomach, glandular, lesion: adenoma, dosed 72 weeks, study length 96 weeks) “positive”; (rat, strain F344/DuCrj, males, in feed, site: stomach, glandular, lesion: adenoma, dosed 96 weeks, study length 96 weeks) “positive”. Besides, the carcinogen call was “positive” (rat, strain F344/DuCrj, males, in feed, site: stomach, glandular, lesion: several types, types named in the paper, dosed 51 weeks, study length 52 weeks); “negative (inactive)” (rat, strain Fischer 344, males, in drinking water, site: urinary bladder, lesion: one or several types, types not named, dosed 78 weeks, study length 78 weeks); “positive” (rat, strain SD(Crj:CD) Sprague-Dawley, males, in feed, site: stomach, glandular, lesion: adenoma, dosed 104 weeks, study length 104 weeks); “positive” (rat, strain WKY/NCrj (Wistar), males, in feed, site: stomach, glandular, lesion: adenoma, dosed 104 weeks, study length 104 weeks).

For `CCC(C)=NO`, the TD50 was 2440 mg/kg/day (mouse, strain Charles River CD1, females, inhaled, site: liver, lesion: hepatocellular adenoma, dosed 78 weeks, study length 78 weeks); 5880 mg/kg/day (mouse, strain Charles River CD1, females, inhaled, site: lung, lesion: adenoma, dosed 78 weeks, study length 78 weeks); 1460 mg/kg/day (mouse, strain Charles River CD1, males, inhaled, site: liver, lesion: hepatocellular adenoma, dosed 78 weeks, study length 78 weeks); 810 mg/kg/day (mouse, strain Charles River CD1, males, inhaled, site: liver, lesion: hepatocellular carcinoma, dosed 78 weeks, study length 78 weeks); 534 mg/kg/day (mouse, strain Charles River CD1, males, inhaled, site: liver, lesion: several types, types named in the paper, dosed 78 weeks, study length 78 weeks); 1100 mg/kg/day (mouse, strain Charles River CD1, males, inhaled, site: lung, lesion: adenoma, dosed 78 weeks, study length 78 weeks). Further, the TD50 is 804 mg/kg/day (rat, strain Fischer 344, females, inhaled, site: liver, lesion: hepatocellular adenoma, dosed 113 weeks, study length 113 weeks); 118 mg/kg/day (rat, strain Fischer 344, males, inhaled, site: liver, lesion: hepatocellular adenoma, dosed 113 weeks, study length 113 weeks); 242 mg/kg/day (rat, strain Fischer 344, males, inhaled, site: liver, lesion: hepatocellular carcinoma, dosed 113 weeks, study length 113 weeks); 74.5 mg/kg/day (rat, strain Fischer 344, males, inhaled, site: liver, lesion: several types, types named in the paper, dosed 113 weeks, study length 113 weeks); 346 mg/kg/day (rat, strain Fischer 344, males, inhaled, site: mammary gland, lesion: fibroadenoma, dosed 113 weeks, study length 113 weeks); 84.8 mg/kg/day (rat, strain Fischer 344, males, inhaled, site: skin, lesion: fibroma, dosed 113 weeks, study length 113 weeks).

On to `c1ccc2n[nH]nc2c1`, for which the TD50 is 18900 mg/kg/day (mouse, strain B6C3F1, females, in feed, site: any site (literature study), lesion: several types, types named in the paper, dosed 104 weeks, study length 106 weeks); 3890 mg/kg/day (mouse, strain B6C3F1, females, in feed, site: lung, lesion: alveolar/bronchiolar adenoma + alveolar/bronchiolar carcinoma, dosed 104 weeks, study length 106 weeks); 4390 mg/kg/day (mouse, strain B6C3F1, females, in feed, site: lung, lesion: alveolar/bronchiolar carcinoma, dosed 104 weeks, study length 106 weeks); 20300 mg/kg/day (rat, strain Fischer 344, females, in feed, site: brain, lesion: glioma, NOS, dosed 78 weeks, study length 105 weeks); 10100 mg/kg/day (rat, strain Fischer 344, females, in feed, site: liver, lesion: hepatocellular adenoma + hepatocellular carcinoma + neoplastic nodule, dosed 78 weeks, study length 105 weeks); 2720 mg/kg/day (rat, strain Fischer 344, males, in feed, site: liver, lesion: hepatocellular adenoma + hepatocellular carcinoma + neoplastic nodule, dosed 78 weeks, study length 104 weeks). Besides, the TD50 (rat, strain Fischer 344, males, in feed, site: liver, lesion: neoplastic nodule, dosed 78 weeks, study length 104 weeks) was 2720 mg/kg/day. Also, the carcinogen call reads like this: (mouse, strain B6C3F1, males, in feed, site: any site (literature study), lesion: several types, types named in the paper, dosed 104 weeks, study length 106 weeks) “negative (inactive)”; (rat, strain Fischer 344, males, in feed, site: brain, lesion: glioma, NOS + oligodendroglioma, dosed 78 weeks, study length 104 weeks) “a”.

For `CC1=C2C(=CO[C@H](C)[C@H]2C)C(=O)C(C(=O)O)=C1O`, the carcinogen call reads like this: (rat, strain Fischer 344, males, in feed, site: kidney, lesion: clear-cell adenoma, dosed 60 weeks, study length 60 weeks) “positive”; (rat, strain Fischer 344, males, in feed, site: kidney, lesion: clear-cell adenoma, dosed 80 weeks, study length 80 weeks) “positive”.
